Numbers after ± are expanded uncertainties.
How the values were obtained:
[1] = Molar enthalpy of transition or fusion; conditions: Crystal
[2] = molar enthalpy of vaporization or sublimation; conditions: Crystal
[3] = Crystal

| Compound | Molar enthalpy of transition or fusion ([1]; DSC) | Molar enthalpy of transition or fusion ([1]; heat flux calorimetry) | molar enthalpy ([2]; 297.3 K) | molar enthalpy ([2]; 297.4 K) | molar enthalpy ([2]; 298.15 K) | Triple point temperature ([3]; DTA) | Triple point temperature ([3]; heat flux calorimetry) | molar enthalpy ([2]; 277.3 K) | molar enthalpy ([2]; 278.2 K) | molar enthalpy ([2]; 279.2 K) |
| --- | --- | --- | --- | --- | --- | --- | --- | --- | --- | --- |
| CC1=C(C)C(=O)C(C)=C(C)C1=O [1,4-benzoquinone, tetramethyl-] | 4.4 ± 0.105 kcal/mol | 4.431 ± 0.0382 kcal/mol | 22.3 ± 0.765 kcal/mol | 21.9 ± 0.765 kcal/mol | 22.3 ± 1.05 kcal/mol | 384.12 ± 0.64 K | 384.84 ± 0.09 K | – | – | – |
| O=C1C=CC(=O)C=C1 [1,4-benzoquinone] | 4.4 ± 0.108 kcal/mol | 4.39 ± 0.174 kcal/mol | – | – | 15.9 ± 0.884 kcal/mol | 385.07 ± 0.68 K | 385.65 ± 0.24 K | 15.4 ± 0.598 kcal/mol | 15.1 ± 0.598 kcal/mol | 14.9 ± 0.598 kcal/mol |
